From patent publication US6326401A, “Formulation for the oromucosal, in particular pernasal, route” (Immunotech, priority 1998, dated 2001)
Read-outs that look alike come from different tables or passages of the source.

What was measured:
[1] = Compared bioavailability of aqueous nasal solution/aqueous subcutaneous solution (Example 9); format: in vivo, healthy volunteer subjects; conditions: 4 mg; for Tmax / half-life: human, serum; for half-life: read-out: Terminal half-life (converted)
Protocol: (§1) The serum concentrations of IS 159 as a function of time were measured on healthy volunteer subjects.

[2] = Reproducibility of bioavailability of the aqueous nasal solution plus Labrasol (Example 5); format: in vivo, human subjects; conditions: 100 μl (4 mg), with Labrasol, 8 subjects
[3] = Dose/effect and reproducibility of bioavailability, nasal 4 mg and 7 mg (Example 6); format: in vivo, human subjects; conditions: with Labrasol
Protocol: The black squares represent the dose of 4 mg and the white squares represent the dose of 7 mg.

[4] = Bioavailability test: serum IS 159 after nasal administration of the solution and control solution of example 1 (Example 4); format: in vivo, man; conditions: for AUC at 4 h / Tmax: human, serum; for AUC at 4 h: observation period 4 hours; for Tmax: read-out: apparent Tmax (converted)
[5] = Compared bioavailability of sublingual formulations without and with Labrasol (Example 7); format: in vivo, healthy volunteer subjects; conditions: 10 mg, sublingual tablet; for AUC at 6 h / Tmax: human, serum; for AUC at 6 h: observation period 6 hours; for Tmax: read-out: apparent Tmax (converted)
Protocol: The serum concentrations of IS 159 as a function of time were measured on healthy volunteer subjects. These subjects received an identical amount of active substance IS 159 (10 mg) in the form of tablets in the absence or presence of Labrasol® (2%) by sublingual administration.

[6] = Comparison between aqueous nasal solution and sublingual formulation (Example 8); format: in vivo, healthy volunteer subjects; conditions: human, serum, 10 mg; for AUC(0-inf): read-out: AUC from time 0 to infinity
Protocol: as §1

[7] = control solution without Labrasol

Tmax ([1]; sc, mean s.c.): 30 min | half-life ([1]; sc, mean s.c.): 150 min | Tmax ([1]; mean nasal, with Labrasol): 15 min | half-life ([1]; mean nasal, with Labrasol): 150 min | AUC/dose ([1]; mean nasal, with Labrasol): 14 (h.ng/ml)(mg dose IS 159) | Cmax/dose ([1]; mean nasal, with Labrasol): 11 ng/mL | AUC/dose ([1]; mean s.c.): 36 (h.ng/ml)(mg dose IS 159) | Cmax/dose ([1]; mean s.c.): 20 ng/mL | AUC/dose, ratio Nasal/s.c. ([1]; nasal (with Labrasol) / s.c.): 39% | Cmax/dose, ratio Nasal/s.c. ([1]; nasal (with Labrasol) / s.c.): 55% | Tmax, Nasal/s.c. ([1]; nasal (with Labrasol) vs s.c.): reduced | terminal half-life, change ([1]; nasal vs subcutaneous): not changed significantly | interindividual and intraindividual reproducibilities of the pharmacokinetic parameters [2]: good | intra-individual and interindividual reproducibility of the pharmacokinetic parameters [3]: good | ratios of the AUCs and the maximum concentrations [3]: constant and high | AUC at 4 h [4, 7]: 12 ng·h/mL | Tmax [4, 7]: 30 min | AUC at 4 h ([4]; with Labrasol): 85 ng·h/mL | Tmax ([4]; with Labrasol): 10 to 15 min | absorption (Cmax) ([4]; with Labrasol vs control solution): increases the absorption (Cmax) | AUC at 6 h ([5]; control (2% lactose)): 0.42 ng·h/mL | Tmax ([5]; control without Labrasol): 45 min | AUC at 6 h ([5]; with 2% Labrasol): 9.72 ng·h/mL | Tmax ([5]; with 2% Labrasol): 35 min | absorption (Cmax) ([5]; with 2% Labrasol vs control): increases the absorption (Cmax) | AUC(0-inf) ([6]; nasal solution with Labrasol): 166 ng·h/mL | AUC(0-inf) ([6]; sublingual tablet with 2% Labrasol): 12 ng·h/mL | half-life ([6]; nasal and sublingual with Labrasol, read-out: terminal half-life (converted)): ~150 min
Structure (SMILES): NCCc1c[nH]c2ccc(OCC(=O)NC(Cc3ccc(O)cc3)C(=O)NCC(N)=O)cc12 (centres unmarked) [IS 159, tryptamine 5-O-carboxymethyl-tyrosyl-glycinamide]
bioavailability ([1]; nasal solution with Labrasol, compared with subcutaneous): significant and faster than by the subcutaneous route
